Data set [1] in a line: Plasma gentamicin after ileal co-administration in the rat. The note with it: absence of 1.
Data set [2] concerns Crithidia fasciculate. To be noted: antifungal agent alone; cited from earlier work.
Data set [3] can be described thus: Plasma calcitonin after ileal co-administration in the rat. The note with it: absence of 1.
Data set [4] deals with Crithidia fasciculate. The experiment in a line: ASSAY IV: efficacy of antifungal agents on protozoa with and without added glycosylated steroid derivatives. In kind it is cell-based.
The test system of data set [5] is DH2 cells (a mutant strain of E. coli K-12). In kind it is cell-based. The note with it: for EFFECT (enhancement of erythromycin): compound 20 mM. As to EFFECT (enhancement of erythromycin): key: --: erythromycin alone at 1.0 mM (baseline) and all lesser effects; +: enhancement relative to baseline; +++: significant enhancement relative to baseline.
A short description of data set [6]: ASSAY II: proton transport across lipid membranes. In kind it is biochemical.
Data set [7] is described as follows: ASSAY I: leakage of carboxyfluorescein from vesicles. In kind it is biochemical. The note with it: for efficacy in permeabilizing phospholipid membranes: concentrations required for >50% leakage taken as measure.
For data set [8] the following is noted: rat, in vivo, 100000 uM.
The conditions of data set [9]: rat, in vivo.
The nature of data set [10]: Enhanced transmucosal delivery of co-administered agents in rat ileum or colon. Format: in vivo.
The conditions of data set [11]: rat, in vivo. The source holds these as a separate data set.
For data set [12] the following is noted: rat, in vivo. This is another data set of the same source.
The nature of data set [13]: Plasma vancomycin after ileal co-administration in the rat.

Entries after “also recorded” stand apart in the source; their conditions may differ. Like-named read-outs stand apart in the source and are kept apart here.

In the case of gentamicin, the “ileal bioavailability of gentamicin” value in data set [1] was 10.7%. In [1] (ileal, 5 mg antibiotic), the “plasma concentrations of gentamicin” value lay in the range of 1000 to 7000 ng/mL.

Turning to `CCCCCCCCSCCCCCCCCC(=O)O` [Entry 10-TSA, 10-thiastearic acid], in the data set on Crithidia fasciculate [2], the IC50 was 10 µM.

Take calcitonin: the “plasma calcitonin” value in data set [3] is reported as “no appreciable amounts of calcitonin are found in the blood”.

On to `COC(=O)CC[C@@H](C)[C@H]1CC[C@H]2[C@@H]3[C@H](O)C[C@@H]4C[C@H](OC(=O)c5ccc(OC)cc5)CC[C@]4(C)[C@H]3C[C@H](O)[C@]12C` [CDE, 3α-O-p-methoxybenzoyl-cis-5,10-cholic acid methyl ester, reference compound], for which the “enhancement of antifungal efficacy” value in the data set on Crithidia fasciculate [4] (with 24-TC (thiacholestanol)) is “lack of an enhancing effect; also recorded: not observed to act as an enhancer”. Also, the “enhancing effect on erythromycin” value in [5] (lower concentrations (Table V)) is “does not function as an enhancer”.

As for `COC(=O)CC[C@@H](C)[C@H]1CC[C@H]2[C@@H]3[C@H](O[C@H]4O[C@H](CO)[C@@H](O)[C@H](O)[C@H]4O)C[C@@H]4C[C@H](OC(=O)c5ccc(OC)cc5)CC[C@]4(C)[C@H]3C[C@H](O[C@H]3O[C@H](CO)[C@@H](O)[C@H](O)[C@H]3O)[C@]12C` [Entry 8, 3α-O-p-methoxybenzoyl-cis-5,10-bis-α,α-7,12-glucosyl cholic acid methyl ester], the “enhancement of antifungal efficacy” value was “enhancing effect; also recorded: enhances the efficacy of 10-TSA dramatically” in the data set with Crithidia fasciculate [4] (with 10-TSA (thiastearic acid), listed as CME) and “enhancing effect; also recorded: enhance the efficacy of 24-TC” in the data set with Crithidia fasciculate [4] (with 24-TC (thiacholestanol), listed as CME). Moreover, the figures for the “% Decrease in Fluorescence” value in [6] (0.00579 mM final concentration) and in [6] (0.0116 mM final concentration) were 20.6% and 32.2%, respectively. Further, the “% increase in Fluorescence” value in data set [7] (0.117 mM final concentration) is 89.1%. Also, the figures for the “efficacy in permeabilizing phospholipid membranes” value in data set [7] and in data set [7] (listed as CME) were “the most effective glycosylated steroids tested” and “a good membrane permeabilizing agent”, respectively. Moreover, the “EFFECT (clearing)” value is “+” in [5] (compound 0.001 mM, erythromycin 0.01 mM); “+” in data set [5] (compound 0.01 mM, erythromycin 0.01 mM); “+” in [5] (compound 0.1 mM, erythromycin 0.01 mM); “+” in data set [5] (compound 0.1 mM, erythromycin 0.1 mM). Further, the “EFFECT (enhancement of erythromycin)” value in [5] (erythromycin 0.5 mM) and in data set [5] (erythromycin 1.0 mM) was “+++” each time. Besides, the results for the “enhancing effect on erythromycin” value in data set [5] (lower concentrations (Table V)) and in data set [5] (test compound 20 mM) were “acts as an enhancer at very low concentrations” and “the best "enhancer" in this assay”, respectively.

Take `COC(=O)CC[C@@H](C)[C@H]1CC[C@H]2[C@@H]3[C@H](O[C@H]4O[C@H](CO)[C@@H](O)[C@H](O)[C@H]4O)C[C@@H]4C[C@@H](N)CC[C@]4(C)[C@H]3C[C@H](O[C@H]3O[C@H](CO)[C@@H](O)[C@H](O)[C@H]3O)[C@]12C` [Compound 1, 3β-amino-7α,12α-di(1'α-glucosyl)-5β-cholic acid methyl ester]: the “peak plasma levels of vancomycin” value in [8] was in the range of 15 to 47 µg/mL. For the same compound, in data set [9], the “plasma concentrations of gentamicin versus concentration of 1” value is reported as “increasing plasma concentrations of the gentamicin”. Also, the “plasma levels of co-administered agents” value in data set [10] is recorded as “increase the plasma levels of proteinaceous compounds; also recorded: resembled pharmacokinetic profiles of agents administered intravenously”. Moreover, the “time to almost peak gentamicin levels” value in [11] (10000 uM) is ≤ 10 min. The “ileal bioavailability of gentamicin” value in [11] (30000 uM) is on record as 19.8%. Moreover, the “plasma calcitonin versus amount of 1” value in [12] is recorded as “plasma calcitonin levels rise with increasing amounts of 1”. For the same compound, the “bioavailability of calcitonin” value in data set [12] (po) is “significant amounts of calcitonin are made available with co-administration of 1”.

Take `CN[C@H](CC(C)C)C(=O)N[C@H]1C(=O)N[C@@H](CC(N)=O)C(=O)N[C@H]2C(=O)N[C@H]3C(=O)N[C@H](C(=O)N[C@H](C(=O)O)c4cc(O)cc(O)c4-c4cc3ccc4O)[C@H](O)c3ccc(c(Cl)c3)Oc3cc2cc(c3O[C@@H]2O[C@H](CO)[C@@H](O)[C@H](O)[C@H]2O[C@H]2C[C@](C)(N)[C@H](O)[C@H](C)O2)Oc2ccc(cc2Cl)[C@H]1O` [Vancomycin]: the “clearance from the circulation” value in data set [13] (ileum versus IV) is given as “cleared more slowly from the circulation when administered via the ileum than via IV”. Moreover, in data set [13] (rat, in vivo, 5 mg), the Cmax was in the range of 5000 to 10000 ng/mL.

On to `C[C@H](CCC(=O)O)[C@H]1CC[C@H]2[C@@H]3[C@H](O)C[C@@H]4C[C@H](O)CC[C@]4(C)[C@H]3C[C@H](O)[C@]12C` [Cholic Acid, reference compound], for which the “% Decrease in Fluorescence” value in data set [6] came to 1.0%. Further, the “% increase in Fluorescence” value was 0% in data set [7] (0.117 mM final concentration) and 59.1% in data set [7] (2.341 mM final concentration). The “efficacy in permeabilizing phospholipid membranes” value in data set [7] is reported as “also permeabilize membranes in this assay, although at much higher concentrations”. For the same compound, in data set [5] (test compound 20 mM), the “enhancing effect on erythromycin” value was “did not have a detectable effect”.

The values are drawn from patent US5627270A, “Glycosylated steroid derivatives for transport across biological membranes and process for making and using same” (Trustees of Princeton University, priority 1994, dated 1997).
